In US20220249399A1, “COMPOSITION COMPRISING AN ANTI-OXIDANT TO PRESERVE CORNEAL TISSUE” (University of lowa Research Foundation, priority 2019, published 2022):

Assays:
[1] = system: A549 human lung cancer cells; assay: ROS assay, dihydroethidium (DHE) fluorescence by flow cytometry, with or without antimycin A; format: cell-based; conditions: for ROS levels (DHE fluorescence) with antimycin A (AM): AM as ROS inducer, p<0.05
Procedure: A549 human lung cancer cells were seeded in 6-well plates at 200,000 cells/well for 40 hours, then the medium was removed, and treatments were added. Ubiquinol (coQ10) was dispersed in RPMI medium at three different concentrations (100, 50, and 10 μM) and added to wells (n=3 each), then the volume of each well was completed to 4 ml with medium. Ubiquinol-γ-cyclodextrin (1:10 molar ratio) complex dispersed in RPMI at three different concentrations (equivalent to 100, 50, and 10 μM of ubiquinol) and added to wells (n=3/each) and the volume of the each well was completed to 4 ml with medium._γ-cyclodextrin was added in amounts equivalent to those associated with 100, 50, and 10 μM of the complex to each well (n=3/each) and the volume of the each well was completed to 4 ml with medium._Six wells were left untreated._After 24 h, media were removed, and wells were washed with 5 mM sodium pyruvate in PBS, trypsinized, then collected in 15 ml tubes by centrifugation. Cells were washed with 5 mM sodium pyruvate in PBS, then re-suspended in 1 ml of the same solution._The reagents were added as described in FIG. 14, then incubated at 40 min._Cells were re-suspended and transferred to round-bottom tubes, and analyzed by flow Cytometry.

[2] = Dispersibility and solubility in water, solvents and media; format: physicochemical; conditions: for solubility in cell culture: cell culture environments (primary cultures)
Procedure: 50 mg of kneaded complex added to 10 ml H2O and shaken for 2 hours.
In FIG. 10, the image on the right is 5 mg of CoQ10 added to 10 ml H2O and shaken for 2 hours.
Paired corneas were supplemented with 10 μM ubiquinol (Fuller et al., 2006) (USP analytical standard, Sigma Aldrich, St. Louis, Mo.), 100 μM palmitate-BSA (Pfleger et al., 2015) (Agilent, Santa Clara, Calif.), or diluent only for 5 days, such that one cornea from a donor received treatment while its mate from the same donor was a control. Concentrations were chosen based on previously published studies (Fuller et al., 2006; Pfleger et al., 2015). Diluents were chosen based on supplement solubility. Although several diluents were tried for ubiquinol (water, Optisol-GS, DMSO and ethanol), ethanol was chosen based on its ability to solubilize ubiquinol most successfully. No complexing agents were used to solubilize ubiquinol. Following the 5 days of storage with supplementation, tissues were processed for metabolic and cell viability assays as described below.
Due to its long hydrocarbon side chain, ubiquinol is difficult to solubilize in biocompatible solvents. In this series, several attempts were made to bring this lipid-soluble molecule into aqueous solution. First, ubiquinol was attempted to be dissolved using polar […] known to be biocompatible with CECs (Optisol-GS, water) based on the goal of achieving a high bioavailability for clinical applications. […] Next two organic polar […] solvents, DMSO and absolute ethanol, were tested. DMSO commonly is used as a solvent in cell biology and biochemistry, and both DMSO and ethanol can solubilize hydrocarbons. […] In addition to its lipophilicity, native ubiquinol is also unstable. Although not encountered in this series ubiquinol oxidizes in the presence of oxygen and light and turns yellow, indicating the formation of its oxidized form, ubiquinone. It is therefore necessary to improve the solubility and handleability of ubiquinol for future validations of its effects on oxidative stress related pathways.

## ubiquinol
[1]; 10, 50, 100 μM ubiquinol or equivalent
  ROS inhibition with an increase in concentration: does not result in any significant change in ROS inhibition
[1]; 24 h treatment, listed as Free ubiquinol
  ROS levels (DHE fluorescence) with antimycin A (AM): failed to decrease ROS levels after AM treatment
[1]; 24 h treatment, listed as free ubiquinol
  ROS levels (DHE fluorescence) with antimycin A (AM): unable to inhibit ROS
[1]; 24 h treatment, no AM
  ROS levels (DHE fluorescence) without ROS induction by AM: decrease the ROS levels in the cells below the normal levels
[2]
  solubility in Optisol-GS storage media after dissolving in ethanol: appeared to remain in solution
  solubility in cell culture: precipitated out of solution
[2]; 50 mg kneaded complex or 5 mg CoQ10 in 10 ml H2O, shaken for 2 hours
  dispersibility in water: prefers to accumulate at the air-water interface or to adhere to the glass container
[2]; listed as coQ10
  solubility in cell culture: not soluble
[2]; despite heating the solution
  solubility in DMSO: precipitated in DMSO
[2]; even after heating
  solubility in Optisol-GS, water: precipitated out of these solutions
[2]; heated to 37° C., precipitates if not poured immediately into storage media
  solubility in absolute ethanol: dissolved
